According to publication PMC8570331, “8-Hydroxyquinoline-Amino Acid Hybrids and Their Half-Sandwich Rh and Ru Complexes: Synthesis, Anticancer Activities, Solution Chemistry and Interaction with Biomolecules” (International Journal of Molecular Sciences, 2021):
Where two headings read alike, the source gives them in different places.

How the values were obtained:
[1] = Proton dissociation constants of the ligands (pH-potentiometry, UV-vis, 1H NMR titrations); type: physicochemical; conditions: for pKa: aqueous solution, I = 0.2 M KNO3, T = 25.0 °C
Method: pH-potentiometric measurements were carried out at 25.0 ± 0.1 °C in water in the pH range between 2.0 and 11.5 and at a constant ionic strength of 0.2 M KNO3. The titrations were performed in a carbonate-free KOH solution (0.20 M). The exact concentrations of HNO3 and KOH solutions were determined by pH-potentiometric titrations. An Orion 710A pH-meter equipped with a Metrohm combined electrode (type 6.0234.100) and a Metrohm 665 Dosimat burette were used for the pH-potentiometric measurements. […] The average water ionization constant, pKw, was determined as 13.76 ± 0.01, which is in good agreement with the literature data. The initial volume of the samples was 5.0 mL. The ligand concentration was 1.75 or 2.0 mM. Samples were degassed by bubbling purified argon through them for about 10 min prior to the measurements, and the inert gas was also passed over the solutions during the titrations. The computer program Hyperquad2013 [46] was utilized to establish the stoichiometry of the species and to calculate the equilibrium constants, similarly to that performed in our previous works.
(§1) Agilent Cary 8454 diode array spectrophotometer was utilized to obtain UV-vis spectra in the wavelength range 190–1100 nm. The path length (ℓ) was 1 cm in most cases (the actual ℓ is always indicated in the legends of the figures). The concentrations of the ligands and complexes were between 88 and 240 µM. For HSA and ct-DNA containing samples, complex concentrations were 100 µM, and 0.5 and 2 equiv. biomolecule were added for kinetic studies, respectively. Individual samples contained 0–20 µM HSA and 0–1.75 mM (nucleotide) ct-DNA. Spectra were always background corrected. The computer program HypSpec was used to obtain stability constants.
Bruker Avance III HD Ascend 500 Plus instrument (Billerica, MA, USA) was used for NMR studies. ^1H NMR spectroscopic measurements were carried out with a WATERGATE water suppression pulse scheme in the presence of 10% (v/v) D2O in most cases. DSS internal standard was added to samples to obtain reference peaks. Complex concentrations were 0.5 mM or 1.0 mM, and 0.5 equiv. HSA was added. ^1H NMR titrations were carried out in the presence of 0.2 M KNO3. With the FHA model peptide, the measurements were performed at 0.5 or 1 mM metal complex concentrations, and 1:1, 1:2 or 2:1 peptide-to-metal complex ratios were applied. The computer program HypSpec was used to obtain stability constants.

[2] = Distribution coefficients, shake-flask n-octanol/buffered aqueous solution; type: physicochemical; conditions: pH 7.4, n-octanol/buffer, in 100 mM KCl, read-out: logD7.4
Method: It is worth noting that these amino acid hybrids have excellent water solubility due to their zwitterionic form, unlike most 8-hydroxyquinolines.
Distribution coefficients of the ligands as well as of the complexes were determined at pH = 7.4 using the traditional shake-flask method in n-octanol/buffered aqueous solution (20 mM phosphate) at different chloride ion concentrations (4, 24 and 100 mM) using UV-vis spectrophotometry for the analysis. The measurement and data evaluation were performed as described in our former work.

[3] = Formation constants of RhCp* complexes by ligand displacement with 2-picolylamine; type: physicochemical; conditions: pH 7.4, displacement by 2-picolylamine, UV-vis, chloride-free
From the text: Besides 2-picolylamine, the rigid aromatic 1,10-phenantroline (phen, Figure 6) or the excess of the 8-hydroxyquinoline ligand itself (Figure S20) also results in the loss of p-cymene. Two main processes were seen upon the addition of two equiv. phen to the complex (Figure 6). The first step is most probably the loss of the arene ring and the formation of a mixed-ligand complex [Ru(II)(HQCl-D-ProH−1)(phen)(H2O)2]^+ (λmax = 500 nm), which is followed by the slower binding of the second phen.
as §1

[4] = Rate of complex formation followed by UV-vis; type: physicochemical; conditions: pH 0.7, equimolar ligand and [M(arene)(H2O)3]2+
Method: The complex formation processes were followed in the absence of chloride ions, similar to our previous studies, to obtain comparative data. Time dependence of UV-vis spectra recorded for the equimolar solution of the ligand and [M(arene)(H2O)3]^2+ at pH 0.7 and 4.1 was followed. The charge-transfer band in the 340–500 nm region is a good indicator for complexation. […] The equilibration time decreased to <2 min for both RhCp* complexes at pH 4.1, while ~1.5 h was needed for the RuCym complexes, as it is shown in Figure S18. Although, in the isolated solid complexes, the neutral ligands are coordinated, in solution under this condition, the formation of complexes with the general formula [M(arene)(HQCl-D-(h)ProH−1)(H2O)]^+ is expected due to the deprotonation of the non-coordinating carboxyl group. In summary, these findings clearly indicate the high stability of the title complexes and the considerable difference in the rate of complex formation with the two types of metal ions.
Agilent Cary 8454 diode array spectrophotometer was utilized to obtain UV-vis spectra in the wavelength range 190–1100 nm. The path length (ℓ) was 1 cm in most cases (the actual ℓ is always indicated in the legends of the figures). The concentrations of the ligands and complexes were between 88 and 240 µM. […]

[5] = test system: human serum albumin (HSA); assay: CD spectroscopy of HSA secondary structure; type: binding; conditions: up to 5 equivalents complex, 50% without complex
Method: Possible changes in the secondary structure of HSA due to its interaction with the RhCp* and RuCym complexes of HQCl-D-hPro were investigated by CD spectroscopy. HSA is mostly composed of α-helices, and its CD spectrum can be characterized by two negative bands (208 and 222 nm). […] Only at higher complex excess (>10) we observed somewhat larger changes; however, such protein-to-complex ratios are far from the biologically relevant conditions.
CD spectroscopy experiments were performed by a JASCO-J-1500 (ABL&E–JASCO Hungary Ltd., Budapest, Hungary) spectrometer using 0.2 or 1 cm optical path length in the wavelength range from 200 to 250 or to 350 nm. The scanning speed was 200 nm/min. The analytical concentration of HSA and ct-DNA was constant (2 and 98 µM, respectively), and the concentration of the complexes was varied (0–26 and 0–47 µM, respectively).

## O=C(O)[C@H]1CCCCN1Cc1cc(Cl)c2cccnc2c1O [HQCl-D-hPro, (R)-5-chloro-7-((homoproline-1-yl)methyl)8-hydroxyquinoline]
[1]; 1H NMR, read-out: pKa (NhPro/ProH+)
  pKa: > 11
[1]; 1H NMR, read-out: pKa (NqH+)
  pKa: 2.52 ± 0.03
[1]; 1H NMR, read-out: pKa (OH)
  pKa: 7.54 ± 0.02
[1]; UV-vis, read-out: pKa (NhPro/ProH+)
  pKa: 11.43 ± 0.01
[1]; UV-vis, read-out: pKa (NqH+)
  pKa: 2.43 ± 0.01
[1]; UV-vis, read-out: pKa (OH)
  pKa: 7.49 ± 0.04
[1]; pH-potentiometry, read-out: pKa (NhPro/ProH+)
  pKa: > 11
[1]; pH-potentiometry, read-out: pKa (NqH+)
  pKa: 2.42 ± 0.04
[1]; pH-potentiometry, read-out: pKa (OH)
  pKa: 7.52 ± 0.06
[1]; at pH 7.4
  fraction of the negatively charged species (O−, COO−, NhPro/ProH+): 42%
[2]
  logD: 0.36

## Cc1c(C)c(C)[c-](C)c1C.O=C(O)[C@H]1CCC[NH+]1Cc1cc(Cl)c2cccnc2c1[O-].[Cl-].[Cl-].[Rh+3] [RhCp*–HQCl-D-Pro, [RhCp*(HQCl-D-Pro)Cl]Cl]
[3]
  stability constant logK of the RhCp* complex: 13.48 ± 0.03
[4]
  time to reach complex formation equilibrium: ~ 30 min

## Cc1c(C)c(C)[c-](C)c1C.O=C(O)[C@H]1CCCC[NH+]1Cc1cc(Cl)c2cccnc2c1[O-].[Cl-].[Cl-].[Rh+3] [RhCp*–HQCl-D-hPro, [RhCp*(HQCl-D-hPro)Cl]Cl]
[3]
  stability constant logK of the RhCp* complex: 13.35 ± 0.03
[5]
  α-helix content of HSA in the presence of the complex: 47%
[4]
  time to reach complex formation equilibrium: ~ 3 min

## Cc1ccc(C(C)C)cc1.O=C(O)[C@H]1CCCC[NH+]1Cc1cc(Cl)c2cccnc2c1[O-].[Cl-].[Cl-].[Ru+2] [RuCym–HQCl-D-hPro, [RuCym(HQCl-D-hPro)Cl]Cl]
[5]
  α-helix content of HSA in the presence of the complex: 46%
